Measured values: PubChem BioAssay (NCI)
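The compound was tested at five concentrations on cells cultured in 96-well plates, with a 48-hour exposure period. TGI denotes the concentration required for complete inhibition of growth.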

How the values were obtained:
Assay in all cases: DTP human tumour cell line panel, 48 h
MALME-3M melanoma = test system: MALME-3M melanoma
ACHN renal = test system: ACHN renal
U251 CNS = test system: U251 CNS
M14 melanoma = test system: M14 melanoma
SNB-75 CNS = test system: SNB-75 CNS
HCT-116 colon = test system: HCT-116 colon
PC-3 prostate = test system: PC-3 prostate
OVCAR-3 ovarian = test system: OVCAR-3 ovarian
UACC-62 melanoma = test system: UACC-62 melanoma
K-562 leukemia = test system: K-562 leukemia
HOP-92 NSCLC = test system: HOP-92 NSCLC
SR leukemia = test system: SR leukemia
HCT-15 colon = test system: HCT-15 colon
HOP-62 NSCLC = test system: HOP-62 NSCLC
HL-60(TB) leukemia = test system: HL-60(TB) leukemia
COLO 205 colon = test system: COLO 205 colon
SK-MEL-2 melanoma = test system: SK-MEL-2 melanoma
CAKI-1 renal = test system: CAKI-1 renal
NCI-H460 lung = test system: NCI-H460 lung
SK-MEL-5 melanoma = test system: SK-MEL-5 melanoma
TK-10 renal = test system: TK-10 renal
SK-MEL-28 melanoma = test system: SK-MEL-28 melanoma
BT-549 breast = test system: BT-549 breast
SF-268 CNS = test system: SF-268 CNS
MDA-MB-231 breast = test system: MDA-MB-231 breast
NCI-H23 lung = test system: NCI-H23 lung
MDA-N = test system: MDA-N
SN12C renal = test system: SN12C renal
NCI/ADR-RES ovarian = test system: NCI/ADR-RES ovarian
UACC-257 melanoma = test system: UACC-257 melanoma
NCI-H226 lung = test system: NCI-H226 lung
SK-OV-3 ovarian = test system: SK-OV-3 ovarian
SNB-19 CNS = test system: SNB-19 CNS
NCI-H522 lung = test system: NCI-H522 lung
T-47D breast = test system: T-47D breast
HS 578T breast = test system: HS 578T breast
HT29 colon = test system: HT29 colon
A549 NSCLC = test system: A549 NSCLC
RPMI-8226 leukemia = test system: RPMI-8226 leukemia
OVCAR-4 ovarian = test system: OVCAR-4 ovarian
UO-31 renal = test system: UO-31 renal
IGROV1 ovarian = test system: IGROV1 ovarian
OVCAR-8 ovarian = test system: OVCAR-8 ovarian
SF-539 CNS = test system: SF-539 CNS
MDA-MB-435 = test system: MDA-MB-435
EKVX NSCLC = test system: EKVX NSCLC
MCF7 breast = test system: MCF7 breast
MOLT-4 leukemia = test system: MOLT-4 leukemia
OVCAR-5 ovarian = test system: OVCAR-5 ovarian
SW-620 colon = test system: SW-620 colon
RXF 393 renal = test system: RXF 393 renal
HCC-2998 colon = test system: HCC-2998 colon
786-0 renal = test system: 786-0 renal
DU-145 prostate = test system: DU-145 prostate
LOX IMVI melanoma = test system: LOX IMVI melanoma
SF-295 CNS = test system: SF-295 CNS
KM12 colon = test system: KM12 colon
A498 renal = test system: A498 renal
CCRF-CEM leukemia = test system: CCRF-CEM leukemia

SMILES: Cc1cc(-c2nc3cc(F)ccc3s2)ccc1NC(=O)[C@@H](N)CCCCN
- TGI (MALME-3M melanoma): 33.2 µM
- TGI (ACHN renal): 19.3 µM
- TGI (U251 CNS): 3.89 µM
- TGI (M14 melanoma): 4.86 µM
- TGI (SNB-75 CNS): 4.99 µM
- TGI (HCT-116 colon): 7.67 µM
- TGI (PC-3 prostate): 21.4 µM
- TGI (OVCAR-3 ovarian): 22.5 µM
- TGI (UACC-62 melanoma): 23.4 µM
- TGI (K-562 leukemia): 5.21 µM
- TGI (HOP-92 NSCLC): 30.3 µM
- TGI (SR leukemia): 3.52 µM
- TGI (HCT-15 colon): 21 µM
- TGI (HOP-62 NSCLC): 11 µM
- TGI (HL-60(TB) leukemia): 6.29 µM
- TGI (COLO 205 colon): 9.35 µM
- TGI (SK-MEL-2 melanoma): 8.76 µM
- TGI (CAKI-1 renal): 20.3 µM
- TGI (NCI-H460 lung): 2.24 µM
- TGI (SK-MEL-5 melanoma): 27.1 µM
- TGI (TK-10 renal): 0.903 µM
- TGI (SK-MEL-28 melanoma): 34.6 µM
- TGI (BT-549 breast): 26.9 µM
- TGI (SF-268 CNS): 22.6 µM
- TGI (MDA-MB-231 breast): 10.5 µM
- TGI (NCI-H23 lung): 4.93 µM
- TGI (MDA-N): 3.27 µM
- TGI (SN12C renal): 26 µM
- TGI (NCI/ADR-RES ovarian): 37.2 µM
- TGI (UACC-257 melanoma): 13.3 µM
- TGI (NCI-H226 lung): 18.1 µM
- TGI (SK-OV-3 ovarian): 25.7 µM
- TGI (SNB-19 CNS): 28.9 µM
- TGI (NCI-H522 lung): 21 µM
- TGI (T-47D breast): 17.3 µM
- TGI (HS 578T breast): 24.7 µM
- TGI (HT29 colon): 9.61 µM
- TGI (A549 NSCLC): 3.88 µM
- TGI (RPMI-8226 leukemia): 4.88 µM
- TGI (OVCAR-4 ovarian): 22 µM
- TGI (UO-31 renal): 13.9 µM
- TGI (IGROV1 ovarian): 18.3 µM
- TGI (OVCAR-8 ovarian): 11.2 µM
- TGI (SF-539 CNS): 9.73 µM
- TGI (MDA-MB-435): 3.69 µM
- TGI (EKVX NSCLC): 16.5 µM
- TGI (MCF7 breast): 11.8 µM
- TGI (MOLT-4 leukemia): 7.24 µM
- TGI (OVCAR-5 ovarian): 17 µM
- TGI (SW-620 colon): 6.04 µM
- TGI (RXF 393 renal): 24.2 µM
- TGI (HCC-2998 colon): 6.85 µM
- TGI (786-0 renal): 7.29 µM
- TGI (DU-145 prostate): 28.4 µM
- TGI (LOX IMVI melanoma): 3.62 µM
- TGI (SF-295 CNS): 9.62 µM
- TGI (KM12 colon): 3.36 µM
- TGI (A498 renal): 23.9 µM

SMILES: CC1CCCC2(CC[N+](C)(CCC[N+](C)(C)C)CC2)C1 (configuration not stated)
- TGI (MALME-3M melanoma): > 100 µM
- TGI (ACHN renal): > 100 µM
- TGI (U251 CNS): > 100 µM
- TGI (M14 melanoma): > 100 µM
- TGI (SNB-75 CNS): > 100 µM
- TGI (HCT-116 colon): > 100 µM
- TGI (PC-3 prostate): > 100 µM
- TGI (OVCAR-3 ovarian): > 100 µM
- TGI (UACC-62 melanoma): > 100 µM
- TGI (K-562 leukemia): > 100 µM
- TGI (HOP-92 NSCLC): > 100 µM
- TGI (SR leukemia): > 100 µM
- TGI (HCT-15 colon): > 100 µM
- TGI (HOP-62 NSCLC): > 100 µM
- TGI (HL-60(TB) leukemia): 43.9 µM
- TGI (COLO 205 colon): > 100 µM
- TGI (SK-MEL-2 melanoma): > 100 µM
- TGI (CAKI-1 renal): > 100 µM
- TGI (NCI-H460 lung): > 100 µM
- TGI (SK-MEL-5 melanoma): > 100 µM
- TGI (TK-10 renal): > 100 µM
- TGI (SK-MEL-28 melanoma): > 100 µM
- TGI (BT-549 breast): > 100 µM
- TGI (SF-268 CNS): > 100 µM
- TGI (MDA-MB-231 breast): > 100 µM
- TGI (MDA-N): > 100 µM
- TGI (SN12C renal): > 100 µM
- TGI (NCI/ADR-RES ovarian): > 100 µM
- TGI (UACC-257 melanoma): > 100 µM
- TGI (NCI-H226 lung): > 100 µM
- TGI (SK-OV-3 ovarian): > 100 µM
- TGI (SNB-19 CNS): > 100 µM
- TGI (NCI-H522 lung): > 100 µM
- TGI (T-47D breast): > 100 µM
- TGI (HS 578T breast): > 100 µM
- TGI (HT29 colon): > 100 µM
- TGI (A549 NSCLC): > 100 µM
- TGI (RPMI-8226 leukemia): > 100 µM
- TGI (OVCAR-4 ovarian): > 100 µM
- TGI (UO-31 renal): > 100 µM
- TGI (IGROV1 ovarian): > 100 µM
- TGI (OVCAR-8 ovarian): > 100 µM
- TGI (SF-539 CNS): > 100 µM
- TGI (MDA-MB-435): > 100 µM
- TGI (EKVX NSCLC): > 100 µM
- TGI (MCF7 breast): > 100 µM
- TGI (MOLT-4 leukemia): > 100 µM
- TGI (OVCAR-5 ovarian): > 100 µM
- TGI (SW-620 colon): > 100 µM
- TGI (RXF 393 renal): > 100 µM
- TGI (786-0 renal): > 100 µM
- TGI (DU-145 prostate): > 100 µM
- TGI (LOX IMVI melanoma): > 100 µM
- TGI (SF-295 CNS): > 100 µM
- TGI (KM12 colon): > 100 µM
- TGI (A498 renal): > 100 µM

SMILES: COc1cccc(N2C(=O)C3c4[nH]c5ccccc5c4C4CCCC4C3C2=O)c1 (configuration not stated)
- TGI (MALME-3M melanoma): 8.22 µM
- TGI (ACHN renal): > 10 µM
- TGI (U251 CNS): > 10 µM
- TGI (M14 melanoma): > 10 µM
- TGI (SNB-75 CNS): 5.77 µM
- TGI (HCT-116 colon): 7.16 µM
- TGI (PC-3 prostate): > 10 µM
- TGI (OVCAR-3 ovarian): > 10 µM
- TGI (UACC-62 melanoma): > 10 µM
- TGI (K-562 leukemia): > 10 µM
- TGI (HOP-92 NSCLC): > 10 µM
- TGI (SR leukemia): 4.09 µM
- TGI (HCT-15 colon): > 10 µM
- TGI (HOP-62 NSCLC): 6.25 µM
- TGI (HL-60(TB) leukemia): > 10 µM
- TGI (COLO 205 colon): > 10 µM
- TGI (SK-MEL-2 melanoma): > 10 µM
- TGI (CAKI-1 renal): > 10 µM
- TGI (NCI-H460 lung): > 10 µM
- TGI (SK-MEL-5 melanoma): > 10 µM
- TGI (TK-10 renal): > 10 µM
- TGI (SK-MEL-28 melanoma): > 10 µM
- TGI (BT-549 breast): > 10 µM
- TGI (SF-268 CNS): > 10 µM
- TGI (MDA-MB-231 breast): 5.63 µM
- TGI (NCI-H23 lung): > 10 µM
- TGI (MDA-N): > 10 µM
- TGI (SN12C renal): 9.02 µM
- TGI (NCI/ADR-RES ovarian): > 10 µM
- TGI (UACC-257 melanoma): > 10 µM
- TGI (NCI-H226 lung): 7.59 µM
- TGI (SK-OV-3 ovarian): > 10 µM
- TGI (SNB-19 CNS): > 10 µM
- TGI (NCI-H522 lung): > 10 µM
- TGI (T-47D breast): > 10 µM
- TGI (HS 578T breast): 8.91 µM
- TGI (HT29 colon): > 10 µM
- TGI (A549 NSCLC): > 10 µM
- TGI (RPMI-8226 leukemia): > 10 µM
- TGI (OVCAR-4 ovarian): 4.76 µM
- TGI (IGROV1 ovarian): > 10 µM
- TGI (CCRF-CEM leukemia): > 10 µM
- TGI (OVCAR-8 ovarian): > 10 µM
- TGI (SF-539 CNS): > 10 µM
- TGI (MDA-MB-435): > 10 µM
- TGI (EKVX NSCLC): > 10 µM
- TGI (MCF7 breast): > 10 µM
- TGI (MOLT-4 leukemia): > 10 µM
- TGI (OVCAR-5 ovarian): > 10 µM
- TGI (SW-620 colon): > 10 µM
- TGI (RXF 393 renal): > 10 µM
- TGI (HCC-2998 colon): > 10 µM
- TGI (786-0 renal): 4.41 µM
- TGI (DU-145 prostate): > 10 µM
- TGI (LOX IMVI melanoma): > 10 µM
- TGI (SF-295 CNS): > 10 µM
- TGI (KM12 colon): > 10 µM
- TGI (A498 renal): 5.1 µM
